# Tests used:
# MOR = target: T1, MOR (Homo sapiens, UniProt P35372); assay: Opioid receptor binding assay, MOR ([3H]DAMGO); settings: MOR
# T1 construct: expressed in transfected cells; membranes prepared from them
# DOR = target: T2, DOR (Homo sapiens, UniProt P41143); assay: Opioid receptor binding assay, DOR ([3H]-DADLE); settings: DOR
# T2 construct: expressed in transfected cells; membranes prepared from them
# [1] = Plasma stability assay, rat plasma; assay type: in vitro ADME; settings: 37° C., 10 μM
# [2] = Solubility determination in oil (cottonseed oil, sesame oil); settings: heating temp. 60 °C, obs. temp. 25 °C
# Description: A known amount of test substance (˜40 mg) was weighed into the vial, 100 μL of oil was added and heated to 60° C. and then system was slurried to reach equilibrium. […] Extra oil was added into the vial once compound precipitated out and then the system was re-equilibrated at 1000 rpm at room temperature (25° C.). Final concentration was determined by HPLC method as described below in Table 6a and 6b.
# KOR = target: T3, KOR (Homo sapiens, UniProt P41145); assay: Opioid receptor binding assay, KOR ([3H]Diprenorphine); settings: KOR
# T3 construct: expressed in transfected cells; membranes prepared from them
# T3 sequence (P41145 whole entry): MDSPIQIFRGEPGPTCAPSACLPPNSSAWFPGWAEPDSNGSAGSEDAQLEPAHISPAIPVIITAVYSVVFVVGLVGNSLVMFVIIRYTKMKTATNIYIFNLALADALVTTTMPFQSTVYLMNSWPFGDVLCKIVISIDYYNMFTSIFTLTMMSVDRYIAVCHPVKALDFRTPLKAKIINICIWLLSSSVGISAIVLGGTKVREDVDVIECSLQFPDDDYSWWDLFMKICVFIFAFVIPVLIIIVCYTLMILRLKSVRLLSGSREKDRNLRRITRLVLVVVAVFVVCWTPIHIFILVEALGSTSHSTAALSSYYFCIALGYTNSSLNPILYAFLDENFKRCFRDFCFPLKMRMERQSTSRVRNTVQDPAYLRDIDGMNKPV
# [3] = Physical characterization of solid state drug substance (PLM, XRPD, DSC, TGA); assay type: physicochemical
# Description: The analysis of the physical characteristics of drug substances that were in a solid state was conducted using polarized light microscopy (PLM), X-ray powder diffractometer (XRPD) assessment, Differential Scanning calorimetry (DSC) and Thermal Gravimetric Analysis (TGA). For PLM, samples were dispersed in immersion oil and were observed using an ocular lens (10×) and objective lens (20×) under crossed polarizers. For XRPD, samples were run on a diffractometer using the following method: Tube—Cu: K-alpha (λ=1.54179 Å); Generator—Voltage 40 kV, Current 40 mA; Scan scope—3 to 40°; sample rotation speed—15 rpm; scanning rate—10 deg/min. For DSC, ˜1 mg of sample was tested using a crimped aluminum pan and covered by a lid with a hole, heated from room temperature to 300° C. at a speed of 10° C./minute. For TGA, 2-5 mg of sample was placed in an open platinum pan and heated from room temperature to 300° C. at a rate of 10° C./minute.
# [4] = Polymorph screening of solid state drug substances; settings: for XRPD results (Dried): stirred 50 °C 72 hours, solids dried; for Visual observation 50° C. / Visual observation RT: target conc. 100 mg/ml
# [5] = Dog pharmacokinetic studies, deep intramuscular; assay type: in vivo, Beagle dogs; settings: dog IM, Cottonseed + 1% Benzyl Alcohol
# Description: The purpose of this study is to determine the pharmacokinetics of test compounds in plasma, following deep intramuscular administration to Beagle dogs (n=3, unless otherwise specified).
# The dose formulation (concentration−400 mg base equivalents/ml in sesame oil+1% benzyl alcohol, unless otherwise specified) was administered via deep intramuscularly (unless otherwise specified). The injection vehicle was also dosed via deep intramuscular route (unless otherwise specified) on contralateral site of each animal at study initiation. The animals were sedated with Propofol at 6 mg/kg via IV administration. Following sedation hair was carefully removed from around the injection site and the area gently cleaned. Care will be taken to avoid irritating skin during shaving and cleaning the injection site. Then dogs will be dosed with deep IM administration. At least 2.5 cm depth from the surface into the central aspect of the quadriceps or biceps femoris muscle, by angling the needle toward the femur. If the needle hits the femur, simply draws back slightly and then inject. The dose volume will be determined by the animals' body weight collected on the morning of dosing day. For repeated administration, the injection sites may be rotated to minimize tissue injury.
# Blood samples were collected from a peripheral vessel from restrained, non-sedated animals per sampling time point.
# Approximately 0.8 mL blood will be collected at each time point.
# Each collected blood sample was centrifuged for 4 minutes at 4° C. and 10000 rpm for plasma collection. Plasma was collected and transferred into a pre-labeled PP tube in dry ice at each time point and precipitated immediately using ACN at a ratio of 1:4 (plasma:ACN). Centrifuged again (10 minutes, 12000 rpm) and obtain the supernatant.
# After terminal collection, all supernatant was stored at approximately −80° C. F until bioanalysis.
# LC-MS/MS methods for the quantitative determination of test compound in biological matrix were developed. […] The sample analysis was performed concurrently with a set of calibration standards and two sets of QC samples using the LC-MS/MS method.
# Plasma concentration versus time data was analyzed by non-compartmental approaches using the Phoenix WinNonlin 6.3 software program. Cmax, Tmax, T1/2, AUC(0-t), AUC(0-inf), MRT(0-t), MRT(0-inf) and graphs of plasma concentration versus time profile were prepared.
# T2 sequence (P41143 whole entry): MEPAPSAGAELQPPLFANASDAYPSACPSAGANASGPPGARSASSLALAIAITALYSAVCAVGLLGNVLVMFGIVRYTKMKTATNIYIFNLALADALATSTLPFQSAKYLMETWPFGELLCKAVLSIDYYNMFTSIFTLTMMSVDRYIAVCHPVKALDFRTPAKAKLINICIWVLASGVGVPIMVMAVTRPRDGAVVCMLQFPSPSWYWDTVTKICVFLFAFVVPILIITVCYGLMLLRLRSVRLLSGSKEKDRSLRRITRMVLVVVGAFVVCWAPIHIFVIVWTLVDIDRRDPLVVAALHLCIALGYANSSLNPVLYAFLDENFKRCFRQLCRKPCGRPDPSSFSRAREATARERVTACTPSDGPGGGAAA
# T1 sequence (P35372 whole entry): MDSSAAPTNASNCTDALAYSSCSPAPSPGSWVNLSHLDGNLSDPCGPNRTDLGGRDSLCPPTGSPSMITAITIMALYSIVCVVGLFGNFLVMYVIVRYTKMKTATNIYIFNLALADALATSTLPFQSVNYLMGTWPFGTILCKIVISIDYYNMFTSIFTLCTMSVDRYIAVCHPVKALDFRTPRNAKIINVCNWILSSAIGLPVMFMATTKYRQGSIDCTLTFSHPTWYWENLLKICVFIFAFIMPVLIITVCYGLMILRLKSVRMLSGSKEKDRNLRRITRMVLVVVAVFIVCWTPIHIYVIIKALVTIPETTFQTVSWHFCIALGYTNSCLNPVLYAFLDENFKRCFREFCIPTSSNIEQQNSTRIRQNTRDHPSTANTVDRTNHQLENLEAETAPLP
SMILES,%Inh@MaxDose (MOR; MaxDose 10000 nM),%Inh@MaxDose (DOR; MaxDose 10000 nM),"% remaining at time point in minutes, 0 min [1]","% remaining at time point in minutes, 15 min [1]","% remaining at time point in minutes, 120 min [1]","% remaining at time point in minutes, 480 min [1]","% remaining at time point in minutes, 1440 min [1]",Approximate Solubility (mg/mL) in Excipient: Sesame oil [2],%Inh@MaxDose (KOR; MaxDose 10000 nM),also measured
"CCCCCCCCOC(=O)Oc1ccc2c3c1O[C@H]1C(=O)CC[C@@]4(O)C(C2)N(CC2CC2)CC[C@]314 [Compound 23, (4aS,7aR,12bS)-3-(cyclopropylmethyl)-4a-hydroxy-7-oxo-2,3,4,4a,5,6,7,7a-octahydro-1H-4,12-methanobenzofuro[3,2-e]isoquinolin-9-yl octyl carbonate]",98.7%,95.6%,10%,0%,0%,0%,0%,>423.9 mg/mL,101.6%,Approximate Solubility (mg/mL) in Excipient: Cottonseed oil ([2]; Cottonseed oil): >407.7 mg/mL
"C=C1CC[C@@]2(O)C3Cc4ccc(OCOC(=O)OCCCCCCCCCCCCCC)c5c4[C@@]2(CCN3CC2CC2)[C@H]1O5 [Compound 25, (((4aS,7aS,12bS)-3-(cyclopropylmethyl)-4a-hydroxy-7-methylene-2,3,4,4a,5,6,7,7a-octahydro-1H-4,12-methanobenzofuro[3,2-e]isoquinolin-9-yl)oxy)methyl tetradecyl carbonate]",87.3%,62%,100%,82.6%,69.3%,62.2%,51.7%,,76.9%,
"C=C1CC[C@@]2(O)C3Cc4ccc(OC(=O)OCCCCCCCCCCCCC)c5c4[C@@]2(CCN3CC2CC2)[C@H]1O5 [Compound 30, (4aS,7aS,12bS)-3-(cyclopropylmethyl)-4a-hydroxy-7-methylene-2,3,4,4a,5,6,7,7a-octahydro-1H-4,12-methanobenzofuro[3,2-e]isoquinolin-9-yl tridecyl carbonate]",82.5%,84.3%,100%,65.7%,40.3%,30.5%,22.2%,252.55 to 398.6 mg/mL,97.6%,
"C=C1CC[C@@]2(O)C3Cc4ccc(OC(=O)OCCCCCCCCCCCCCCC)c5c4[C@@]2(CCN3CC2CC2)[C@H]1O5 [Compound 32, (4aS,7aS,12bS)-3-(cyclopropylmethyl)-4a-hydroxy-7-methylene-2,3,4,4a,5,6,7,7a-octahydro-1H-4,12-methanobenzofuro[3,2-e]isoquinolin-9-yl pentadecyl carbonate]",75.9%,,,,,,,>410 mg/mL,80.1%,
"C=C1CC[C@@]2(O)C3Cc4ccc(OC(=O)NC(C)(C)C)c5c4[C@@]2(CCN3CC2CC2)[C@H]1O5 [Compound 40, (4aS,7aS,12bS)-3-(cyclopropylmethyl)-4a-hydroxy-7-methylene-2,3,4,4a,5,6,7,7a-octahydro-1H-4,12-methanobenzofuro[3,2-e]isoquinolin-9-yl tert-butylcarbamate]",,,,,,,,,,"X-ray Powder Diffraction ([3]; solid state drug substance, XRPD/PLM): Crystal form with partial; XRPD results (Dried) ([4]; Acetone): Amorphous; Visual observation 50° C. ([4]; Acetone): Clear; Visual observation RT ([4]; Acetone): Slurry; XRPD results (Dried) ([4]; EtOAc): Pattern A; Visual observation 50° C. ([4]; EtOAc): Clear; Visual observation RT ([4]; EtOAc): Slurry; XRPD results (Dried) ([4]; Heptane): Pattern A; Visual observation 50° C. ([4]; Heptane): Slurry; Visual observation RT ([4]; Heptane): Slurry; XRPD results (Dried) ([4]; Isopropanol): Amorphous; Visual observation 50° C. ([4]; Isopropanol): Clear; Visual observation RT ([4]; Isopropanol): Slurry; XRPD results (Dried) ([4]; MTBE): Amorphous; Visual observation 50° C. ([4]; MTBE): Clear; Visual observation RT ([4]; MTBE): Clear; Comment: stability of initial crystal form (pattern A) ([4]; polymorph screen over Heptane, MTBE, Isopropanol, EtOAc, Acetone): stable form. Same crystal form"
"C=C1CC[C@@]2(O)C3Cc4ccc(OCOC(=O)CCCCCCCCCCC)c5c4[C@@]2(CCN3CC2CC2)[C@H]1O5 [Compound 44, (((4aS,7aS,12bS)-3-(cyclopropylmethyl)-4a-hydroxy-7-methylene-2,3,4,4a,5,6,7,7a-octahydro-1H-4,12-methanobenzofuro[3,2-e]isoquinolin-9-yl)oxy)methyl dodecanoate]",83.1%,79.1%,,,,,,,99.2%,
"C=C1CC[C@@]2(O)C3Cc4ccc(OCOC(=O)CCCCCCCCCCCCC)c5c4[C@@]2(CCN3CC2CC2)[C@H]1O5 [Compound 45, (((4aS,7aS,12bS)-3-(cyclopropylmethyl)-4a-hydroxy-7-methylene-2,3,4,4a,5,6,7,7a-octahydro-1H-4,12-methanobenzofuro[3,2-e]isoquinolin-9-yl)oxy)methyl tetradecanoate]",93.7%,71.8%,,,,,,,100.1%,AUC0-inf (ng · h/mL) prodrug ([5]; 30 mg/kg): 100 ng·h/mL; Half-life t1/2 (hour) prodrug ([5]; 30 mg/kg): 151 h; AUC0-inf (ng · h/mL) prodrug ([5]; 48 mg/kg): 267 ng·h/mL; Half-life t1/2 (hour) prodrug ([5]; 48 mg/kg): 171 h
"C=C1CC[C@@]2(O)C3Cc4ccc(OCOC(=O)CCCCCCCCCCCCCCC)c5c4[C@@]2(CCN3CC2CC2)[C@H]1O5 [Compound 46, (((4aS,7aS,12bS)-3-(cyclopropylmethyl)-4a-hydroxy-7-methylene-2,3,4,4a,5,6,7,7a-octahydro-1H-4,12-methanobenzofuro[3,2-e]isoquinolin-9-yl)oxy)methyl hexadecanoate]",102.3%,72.3%,,,,,,,101.8%,
"C=C1CC[C@@]2(O)C3Cc4ccc(OC(=O)CCCCCCCCCCCCCCC)c5c4[C@@]2(CCN3CC2CC2)[C@H]1O5 [Compound 56, (4aS,7aS,12bS)-3-(cyclopropylmethyl)-4a-hydroxy-7-methylene-2,3,4,4a,5,6,7,7a-octahydro-1H-4,12-methanobenzofuro[3,2-e]isoquinolin-9-yl palmitate, reference compound]",,,100%,73.1%,56.7%,35.8%,16.8%,,,"Thermal Gravimetric Analysis, weight loss ([3]; at 120° C., heated from room temperature at 10° C./minute): Weight loss of 0.1815%"
"C=C1CC[C@@]2(O)[C@H]3Cc4ccc(O)c5c4[C@@]2(CCN3CC2CC2)[C@H]1O5 [nalmefene, 17-cyclopropylmethyl-4,5α-epoxy-6-methylenemorphinan-3,14-diol, reference compound]",,,,,,,,,,%Inh@MaxDose (MOR; MaxDose 1000 nM): 103.5%; %Inh@MaxDose (DOR; MaxDose 1000 nM): 94.5%; %Inh@MaxDose (KOR; MaxDose 1000 nM): 103%

# Source: patent publication US10525055B2, “Opioid receptor antagonist prodrugs” (Nirsum Laboratories, Inc., priority 2017, dated 2020)
